Measurements as given in patent publication US8110573B2, “Pyrazole compounds that modulate the activity of CDK, GSK and aurora kinases” (Astex Therapeutics Limited, priority 2004, dated 2012).
Where a name gives a salt, the structure may show the parent alone.

How the values were obtained:
physchem = conditions: water, thermodynamic from solid
[1] = Gravimetric vapour sorption (GVS); type: physicochemical; conditions: 0-90% RH cycle, 25° C.
Procedure: The sample size was ca. 10-25 mg. […] The sample was loaded and unloaded at room humidity and temperature (ca. 40% RH, 25° C.) and analysed afterwards by XRPD (using a Bruker AXS C2 GADDS system).

[2] = Salt stability at 40° C. 75% RH followed by XRPD; type: physicochemical; conditions: 40° C. and 75% RH over the period of 1-2 month
Procedure: Approximately 15 mg of samples for the stability study were gently ground by marble mortar and transferred to a Petri dish in a thin layer. Samples were then placed in sealed containers containing saturated NaCl solution with an excess of undissolved NaCl. […] Samples were analysed by X-ray powder diffraction (XRPD) in regular intervals. Samples for XRPD data collection were loaded into crystallographic capillary (from Hampton Research, made of Quartz, diameter=0.4 mm). […] 2D Images were collected while spinning φ axis with a detector to crystal distance of 250 mm. Data collection was controlled by CrystalClear software and 2D images were converted to 1D plot (2θ vs. Intensity) by Datasqueeze (intensity averaged over the azimuthal angle 0<χ<360° for 2θ range 3-30° in 0.01° steps).

Compound | solubility at 16 h (physchem) [mg/mL] | hygroscopic behaviour (GVS isotherm) [1] | change of XRPD pattern on storage [2]
O=C(Nc1c[nH]nc1-c1nc2cc(CN3CCOCC3)ccc2[nH]1)NC1CC1 [Hydrochloride, 1-cyclopropyl-3-[3-(5-morpholin-4-ylmethyl-1H-benzoimidazol-2-yl)-1H-pyrazol-4-yl]-urea] | < 25 |  | 
C[C@H](O)C(=O)O.O=C(Nc1c[nH]nc1-c1nc2cc(CN3CCOCC3)ccc2[nH]1)NC1CC1 [L-lactate salt, 1-cyclopropyl-3-[3-(5-morpholin-4-ylmethyl-1H-benzoimidazol-2-yl)-1H-pyrazol-4-yl]-urea, L-lactate salt] |  | does not display hygroscopic behaviour and does not form a hydrate | do not change
